Measurements taken from US7166726B2, “Aryl substituted 3,4-dihydroanthracene derivatives having retinoid antagonist or retinoid inverse agonist type biological activity” (Allergan, Inc., priority 1996, dated 2007).

Experiments:
RARγ = molecular target: T1, RARγ (Homo sapiens, UniProt P13631); experiment: Ligand binding assay, RARγ; conditions: read-out: Kd TATγ
T1 sequence (P13631 1-454): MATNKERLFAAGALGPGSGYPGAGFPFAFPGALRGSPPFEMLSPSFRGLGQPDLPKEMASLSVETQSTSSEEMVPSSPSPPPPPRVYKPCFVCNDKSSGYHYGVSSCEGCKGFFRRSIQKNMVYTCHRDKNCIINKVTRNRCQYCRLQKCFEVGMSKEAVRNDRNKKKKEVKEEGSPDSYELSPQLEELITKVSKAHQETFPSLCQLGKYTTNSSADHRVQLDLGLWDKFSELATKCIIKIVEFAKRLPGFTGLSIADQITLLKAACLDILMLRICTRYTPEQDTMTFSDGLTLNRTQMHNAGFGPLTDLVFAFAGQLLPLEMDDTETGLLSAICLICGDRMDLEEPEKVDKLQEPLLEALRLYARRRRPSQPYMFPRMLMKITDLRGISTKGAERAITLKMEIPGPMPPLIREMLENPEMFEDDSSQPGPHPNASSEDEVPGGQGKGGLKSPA
Source text: (§1) A holoreceptor transactivation assay and a ligand binding assay which measure the antagonist/agonist like activity of the compounds of the invention, or their ability to bind to the several retinoid receptor subtypes, respectively, are described in published PCT Application No. WO WO93/11755 (particularly on pages 30–33 and 37–41) published on Jun. 24, 1993, the specification of which is also incorporated herein by reference. A description of the holoreceptor transactivation assay is also provided below.
(§2) CV1 cells (5,000 cells/well) were transfected with an RAR reporter plasmid MTV-TREp-LUC (50 ng) along with one of the RAR expression vectors (10 ng) in an automated 96-well format by the calcium phosphate procedure of Heyman et al. Cell 68, 397–406, (1992). For RXRα and RXRγ transactivation assays, an RXR-responsive reporter plasmid CRBPII-tk-LUC (50 ng) along with the appropriate RXR expression vectors (10 ng) was used substantially as described by Heyman et al. above, and Allegretto et al. J. Biol. Chem. 268, 26625–26633. For RXRβ transactivation assays, an RXR-responsive reporter plasmid CPRE-tk-LUC ([…]) along with RXRβ expression vector ([…]) was used as described in above. These reporters contain DRI elements from human CRBPII and certain DRI elements from promoter, respectively. […]

[1] = test system: RARγ-VP-16 chimeric receptor; experiment: Retinoid inverse agonist assay: repression of basal luciferase activity of RARγ-VP-16 chimeric receptor in CV-1 cells; assay type: cell-based; conditions: CV-1 cells cotransfected with RARγ-VP-16, ER-RXRα chimeric receptor and ERE-tk-Luc reporter; read-out: IC50, inhibition of basal luciferase activity
Source text: The activity of retinoid inverse agonists can be tested by the procedure of Klein et al. J. Biol. Chem. 271, 22692–22696 (1996) which is expressly incorporated herein by reference.
In this assay, retinoid inverse agonists are able to repress the basal activity of a RARγ-VP-16 chimeric receptor where the constituitively active domain of the herpes simplex virus (HSV) VP-16 is fused to the N-terminus of RARγ. CV-1 cells are cotransfected with RARγ-VP-16, an ER-RXRα chimeric receptor and an ERE-tk-Luc chimeric reporter gene to produce a basal level of luciferase activity, as shown by Nagpal et al. EMBO J. 12, 2349–2360 (1933) expressly incorporated herein by reference. Retinoid inverse agonists are able to inhibit the basal luciferase activity in these cells in a dose dependent manner and IC50s measured.

RARβ = molecular target: T2, RARβ (Homo sapiens, UniProt P10826); experiment: Ligand binding assay, RARβ
T2 sequence (P10826 1-455): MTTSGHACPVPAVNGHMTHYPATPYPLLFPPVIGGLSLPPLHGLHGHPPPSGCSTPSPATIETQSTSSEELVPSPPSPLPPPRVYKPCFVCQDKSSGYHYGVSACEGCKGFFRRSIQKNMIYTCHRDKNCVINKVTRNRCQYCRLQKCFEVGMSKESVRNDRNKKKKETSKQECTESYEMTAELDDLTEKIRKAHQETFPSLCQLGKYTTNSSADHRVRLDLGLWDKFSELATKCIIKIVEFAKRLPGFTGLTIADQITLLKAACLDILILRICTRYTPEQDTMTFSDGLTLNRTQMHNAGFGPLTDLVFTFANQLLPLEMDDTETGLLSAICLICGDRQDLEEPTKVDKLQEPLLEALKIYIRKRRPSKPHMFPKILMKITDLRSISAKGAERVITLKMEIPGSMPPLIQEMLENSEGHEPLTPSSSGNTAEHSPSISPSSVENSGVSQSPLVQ
Source text: as §1, §2

RARα = molecular target: T3, RARα (Homo sapiens, UniProt P10276); experiment: Ligand binding assay, RARα
T3 sequence (P10276 1-462): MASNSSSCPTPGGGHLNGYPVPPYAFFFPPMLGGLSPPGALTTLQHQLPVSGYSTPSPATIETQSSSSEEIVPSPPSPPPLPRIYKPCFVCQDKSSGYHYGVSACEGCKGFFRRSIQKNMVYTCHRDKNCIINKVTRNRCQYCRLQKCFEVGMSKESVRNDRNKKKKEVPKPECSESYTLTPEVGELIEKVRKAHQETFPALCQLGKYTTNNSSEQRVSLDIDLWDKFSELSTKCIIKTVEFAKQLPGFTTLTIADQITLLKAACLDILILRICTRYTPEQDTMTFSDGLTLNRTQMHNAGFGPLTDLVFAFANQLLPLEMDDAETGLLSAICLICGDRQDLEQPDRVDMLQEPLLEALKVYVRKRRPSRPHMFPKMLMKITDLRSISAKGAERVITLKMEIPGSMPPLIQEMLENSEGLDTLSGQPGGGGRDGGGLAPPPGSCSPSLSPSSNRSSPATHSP
Source text: as §1, §2

For Cc1ccc(C2=CCC(C)(C)c3cc4cccc(-c5ccc(C(=O)O)cc5)c4cc32)cc1 [Compound 2, 4-[1(Tol-4-yl)-3,4-dihydro-4,4-dimethyl-anthracen-8-yl]-benzoic acid], the Kd (RARγ) was 7 nM, the IC50 [1] was 1 nM and the Kd (RARβ) was 4 nM. It also gave a Kd (RARα) of 13 nM.

Cc1ccc(C2=CC(C)(C)Oc3cc4ccc(-c5ccc(C(=O)O)cc5)cc4cc32)s1 [Compound 12, 4-[2,2-Dimethyl-4-(5-methyl-thien-2-yl)-benzo[1,2-g]-chrom-3-en-7-yl]benzoic acid] was tested, and the Kd (RARγ) was 33 nM, the Kd (RARβ) was 12 nM and the Kd (RARα) was 17 nM.
